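The concentration for 50% growth inhibition is given as GI50. The concentration for full growth arrest is given as TGI.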
How the values were obtained:
Test in all cases: NCI tumour cell line growth inhibition, 384-well format; in the data active = GI50 below about 0.43 µM; inactive = the rest
[1] = tested on: A498 renal
[2] = tested on: A549 NSCLC
[3] = tested on: ACHN renal
[4] = tested on: BT-549 breast
[5] = tested on: CAKI-1 renal
[6] = tested on: CCRF-CEM leukemia
[7] = tested on: COLO 205 colon
[8] = tested on: DU-145 prostate
[9] = tested on: EKVX NSCLC
[10] = tested on: HCC-2998 colon
[11] = tested on: HCT-116 colon
[12] = tested on: HCT-15 colon
[13] = tested on: HL-60(TB) leukemia
[14] = tested on: HOP-62 NSCLC
[15] = tested on: HOP-92 NSCLC
[16] = tested on: HS 578T breast
[17] = tested on: HT29 colon
[18] = tested on: K-562 leukemia
[19] = tested on: LOX IMVI melanoma
[20] = tested on: M14 melanoma
[21] = tested on: MALME-3M melanoma
[22] = tested on: MCF7 breast
[23] = tested on: MDA-MB-231 breast
[24] = tested on: MDA-MB-468 breast
[25] = tested on: NCI-H226 lung
[26] = tested on: NCI-H23 lung
[27] = tested on: NCI-H322M lung
[28] = tested on: NCI-H522 lung
[29] = tested on: NCI/ADR-RES ovarian
[30] = tested on: OVCAR-5 ovarian
[31] = tested on: OVCAR-8 ovarian
[32] = tested on: PC-3 prostate
[33] = tested on: RPMI-8226 leukemia
[34] = tested on: RXF 393 renal
[35] = tested on: SF-268 CNS
[36] = tested on: SF-295 CNS
[37] = tested on: SF-539 CNS
[38] = tested on: SK-MEL-28 melanoma
[39] = tested on: SK-MEL-5 melanoma
[40] = tested on: SK-OV-3 ovarian
[41] = tested on: SNB-19 CNS
[42] = tested on: SNB-75 CNS
[43] = tested on: SW-620 colon
[44] = tested on: T-47D breast
[45] = tested on: TK-10 renal
[46] = tested on: UACC-257 melanoma
[47] = tested on: UACC-62 melanoma

CC(C)(O)c1cc(Nc2cc(Oc3cn(C4CC4)nc3C3CCOCC3)ccn2)ccn1
> 100 µM: TGI [1] | TGI [2] | TGI [3] | TGI [4] | TGI [5] | TGI [6] | TGI [7] | TGI [8] | TGI [9] | TGI [10] | TGI [11] | TGI [12] | TGI [14] | TGI [15] | TGI [16] | TGI [17] | TGI [18] | TGI [20] | TGI [21] | TGI [22] | TGI [23] | TGI [25] | TGI [26] | TGI [27] | TGI [28] | TGI [29] | TGI [30] | TGI [31] | TGI [32] | TGI [34] | TGI [35] | TGI [36] | TGI [37] | TGI [38] | TGI [39] | TGI [40] | TGI [41] | TGI [42] | TGI [43] | TGI [44] | TGI [45] | TGI [46] | TGI [47]
29.1 µM: TGI [13]
inactive: GI50 [1] 66.8 µM | GI50 [2] 89.6 µM | GI50 [3] > 100 µM | GI50 [4] 38.7 µM | GI50 [5] 68.1 µM | GI50 [6] 46.7 µM | GI50 [7] 63.2 µM | GI50 [8] > 100 µM | GI50 [9] 51.6 µM | GI50 [10] > 100 µM | GI50 [11] 46.6 µM | GI50 [12] > 100 µM | GI50 [13] 15.5 µM | GI50 [14] > 100 µM | GI50 [15] 50.7 µM | GI50 [16] 37.7 µM | GI50 [17] 54.1 µM | GI50 [18] 26.3 µM | GI50 [19] 24.9 µM | GI50 [20] > 100 µM | GI50 [21] > 77.1 µM | GI50 [22] 29.9 µM | GI50 [23] > 89 µM | GI50 [24] 33.8 µM | GI50 [25] > 93.3 µM | GI50 [26] 23.1 µM | GI50 [27] > 100 µM | GI50 [28] > 68.6 µM | GI50 [29] > 100 µM | GI50 [30] > 100 µM | GI50 [31] > 100 µM | GI50 [32] 76.1 µM | GI50 [33] 45.5 µM | GI50 [34] 43.5 µM | GI50 [35] > 100 µM | GI50 [36] > 90 µM | GI50 [37] > 100 µM | GI50 [38] > 80.5 µM | GI50 [39] 16.4 µM | GI50 [40] 85.1 µM | GI50 [41] > 100 µM | GI50 [42] > 91.6 µM | GI50 [43] > 91.7 µM | GI50 [44] 32.6 µM | GI50 [45] 67.2 µM | GI50 [46] 45 µM | GI50 [47] 52.1 µM
84.9 µM: TGI [19]
> 83.5 µM: TGI [24]
> 91 µM: TGI [33]

From PubChem BioAssay (NCI)
